Experimental data: patent US10961202B2, “Bis-benzimidazole compounds and methods of using the same” (THE SCRIPPS RESEARCH INSTITUTE, priority 2017, dated 2021)

test system: r(CUG)12-MBNL1 complex; experiment: Inhibition of the r(CUG)12-MBNL1 complex measured by TR-FRET; assay type: biochemical; details: Table M; 80 nM RNA, 60 nM MBNL1-His6

| IC50 | Structure (SMILES) |
| --- | --- |
| > 200 µM | CN(C)CCCOc1ccc2nc(-c3ccc(-c4nc5ccc(OCCCC(=O)O)cc5[nH]4)cc3)[nH]c2c1 [Compound 248, 4-((2-(4-(5-(3-(dimethylamino)propoxy)-1H-benzo[d]imidazol-2-yl)phenyl)-1H-benzo[d]imidazol-5-yl)oxy)butanoic acid] |
| 52.6 µM | CN(C)CCCOc1ccc2nc(-c3ccc(-c4nc5ccc(O)cc5[nH]4)cc3)[nH]c2c1 [Compound 249] |
| > 200 µM | CN(C)CCCOc1ccc2nc(-c3ccc(-c4nc5ccc(C(=O)O)cc5[nH]4)cc3)[nH]c2c1 [Compound 250, 2-(4-(6-(3-(dimethylamino)propoxy)-1H-benzo[d]imidazol-2-yl)phenyl)-1H-benzo[d]imidazole-6-carboxylic acid] |
| 112 µM | CN(C)CCn1cc(-c2ccc3nc(-c4ccc(-c5nc6ccc(-c7cn(CCN(C)C)nn7)cc6[nH]5)cc4)[nH]c3c2)nn1 [Compound 251, 2,2′-(4,4′-(2,2′-(1,4-phenylene)bis(1H-benzo[d]imidazole-6,2-diyl))bis(1H-1,2,3-triazole-4,1-diyl))bis(N,N-dimethylethanamine)] |
| > 200 µM | CN(C)CCCOc1ccc2nc(-c3cccc(-c4nc5ccc(OCCCN(C)C)cc5[nH]4)c3)[nH]c2c1 [Compound 253, 3,3′-((1,3-phenylenebis(1H-benzo[d]imidazole-2,6-diyl))bis(oxy))bis(N,N-dimethylpropan-1-amine)] |
| > 200 µM | CN(C)CCCOc1ccc2nc(-c3ccc(-c4nc5ccc(C(=O)OC(C)(C)C)cc5[nH]4)cc3)[nH]c2c1 [Compound 254, tert-butyl 2-(4-(6-(3-(dimethylamino)propoxy)-1H-benzo[d]imidazol-2-yl)phenyl)-1H-benzo[d]imidazole-6-carboxylate] |
| 37.5 µM | COCCOCCOc1cc(-c2nc3ccc(OCCCN(C)C)cc3[nH]2)ccc1-c1nc2ccc(OCCCN(C)C)cc2[nH]1 [Compound 260] |
| 74.1 µM | OCCOc1cc(-c2nc3ccc(O)cc3[nH]2)ccc1-c1nc2ccc(O)cc2[nH]1 [Compound 261] |
| 55.5 µM | COCCOc1cc(-c2nc3cc(OCCCN(C)C)ccc3[nH]2)c(OC)cc1-c1nc2ccc(OCCCN(C)C)cc2[nH]1 [Compound 262, 3-((2-(4-(6-(3-(dimethylamino)propoxy)-1H-benzo[d]imidazol-2-yl)-2-methoxy-5-(2-methoxyethoxy)phenyl)-1H-benzo[d]imidazol-5-yl)oxy)-N,N-dimethylpropan-1-amine] |
| 45.6 µM | CN(C)CCCOc1ccc2nc(-c3ccc(-c4nc5ccc(OCCCN(C)C)cc5[nH]4)c(OCCN(C)C)c3)[nH]c2c1 [Compound 263, 3,3′-((2,2′-(2-(2-(dimethylamino)ethoxy)-1,4-phenylene)bis(1H-benzo[d]imidazole-6,2-diyl))bis(oxy))bis(N,N-dimethylpropan-1-amine)] |
| > 200 µM | Cc1cc(-c2nc3ccc(OCCCN(C)C)cc3[nH]2)c(C)cc1-c1nc2ccc(OCCCN(C)C)cc2[nH]1 [Compound 271, (3-[[2-(4-[6-[3-(dimethylamino)propoxy]-1H-1,3-benzodiazol-2-yl]-2,5-dimethylphenyl)-1H-1,3-benzodiazol-6-yl]oxy]propyl)dimethylamine] |
| 95.2 µM | Cc1cc(-c2nc3ccc(OCCCN(C)C)cc3[nH]2)ccc1-c1nc2ccc(OCCCN(C)C)cc2[nH]1 [Compound 272] |
| 31.3 µM | CN(C)CCCOc1ccc2nc(-c3ccc(-c4nc5ccc(OCCCN(C)C)c(F)c5[nH]4)cc3)[nH]c2c1F [Compound 280] |
| > 200 µM | FC(F)(F)CCCOc1ccc2nc(-c3ccc(-c4nc5ccc(OCCCC(F)(F)F)cc5[nH]4)cc3)[nH]c2c1 [Compound 281] |
| 179 µM | CN(C)C(C)(C)CCOc1ccc2nc(-c3ccc(-c4nc5ccc(OCCC(C)(C)N(C)C)cc5[nH]4)cc3)[nH]c2c1 [Compound 282, 4,4′-((1,4-phenylenebis(1H-benzo[d]imidazole-2,6-diyl))bis(oxy))bis(N,N,2-trimethylbutan-2-amine)] |
| 24.1 µM | CN(C)CCNC(=O)COc1ccc2nc(-c3ccc(-c4nc5ccc(OCC(=O)NCCN(C)C)cc5[nH]4)cc3)[nH]c2c1 [Compound 284, 2,2′-((1,4-phenylenebis(1H-benzo[d]imidazole-2,6-diyl))bis(oxy))bis(N-(2-(dimethylamino)ethyl)acetamide)] |
| > 200 µM | CN(C)CCNC(=O)CSc1ccc2nc(-c3ccc(-c4nc5ccc(SCC(=O)NCCN(C)C)cc5[nH]4)cc3)[nH]c2c1 [Compound 285, N-[2-(dimethylamino)ethyl]-2-[[2-(4-[6-[([[2-(dimethylamino)ethyl]carbamoyl]methyl)sulfanyl]-1H-1,3-benzodiazol-2-yl]phenyl)-1H-1,3-benzodiazol-6-yl]sulfanyl]acetamide] |
| 8.6 µM | CN(C)CCCOc1cc(F)cc2nc(-c3ccc(-c4nc5cc(F)cc(OCCCN(C)C)c5[nH]4)cc3)[nH]c12 [Compound 287] |
| 42.6 µM | CN(C)CCCOc1ccc2nc(-c3ccc(-c4nc5ccc(OCCCN(C)C)cc5[nH]4)c([N+](=O)[O-])c3)[nH]c2c1 [Compound 288, 3,3′-(((2-nitro-1,4-phenylene)bis(1H-benzo[d]imidazole-2,6-diyl))bis(oxy))bis(N,N-dimethylpropan-1-amine)] |
| > 200 µM | N#CCCCOc1ccc2nc(-c3ccc(-c4nc5ccc(OCCCC#N)cc5[nH]4)cc3)[nH]c2c1 [Compound 289] |
| 61.5 µM | CN(C)CCCOc1ccc2nc(-c3ccc(-c4nc5ccc(OCCCN(C)C)cc5[nH]4)c(N)c3)[nH]c2c1 [Compound 291, 3,3′-(((2-amino-1,4-phenylene)bis(1H-benzo[d]imidazole-2,6-diyl))bis(oxy))bis(N,N-dimethylpropan-1-amine)] |
| 18.4 µM | CN(C)CCCOc1ccc2nc(-c3ccc(-c4nc5ccc(OCCCN(C)C)cc5[nH]4)c(Br)c3)[nH]c2c1 [Compound 294, 3,3′-(2,2′-(2-bromo-1,4-phenylene)bis(3H-benzo[d]imidazole-5,2-diyl))bis(oxy)bis(N,N-dimethylpropan-1-amine)] |

| IC50 | Structure (SMILES) |
| --- | --- |
| 69.9 µM | c1cc2nc(-c3ccc(-c4nc5ccc(OCCCN6CCCC6)cc5[nH]4)cc3)[nH]c2cc1OCCCN1CCCC1 [Compound 295] |
| 8.4 µM | CN(C)CCCOc1ccc2nc(-c3cc(F)c(-c4nc5ccc(OCCCN(C)C)cc5[nH]4)cc3F)[nH]c2c1 [Compound 296] |
| > 200 µM | COc1c(-c2nc3ccc(SCCCN(C)C)cc3[nH]2)ccc(-c2nc3ccc(SCCCN(C)C)cc3[nH]2)c1OC [Compound 300, 3,3′-(((2,3-dimethoxy-1,4-phenylene)bis(1H-benzo[d]imidazole-2,6-diyl))bis(sulfanediyl))bis(N,N-dimethylpropan-1-amine)] |
| > 200 µM | CN(C)CCCOc1ccc2c(c1)nc(-c1ccc(-c3nc4cc(OCCCN(C)C)ccc4n3C)cc1)n2C [Compound 309] |
| > 200 µM | CN(C)CCCOc1ccc2nc(-c3ccc(-c4nc5ccc(OCCCN(C)C)cc5n4C)cc3)n(C)c2c1 [Compound 310] |
| > 200 µM | CN(C)CCCOc1ccc2c(c1)nc(-c1ccc(-c3nc4ccc(OCCCN(C)C)cc4n3C)cc1)n2C [Compound 311] |
| > 200 µM | CN(C)CCCOc1ccc2nc(-c3ccc(-c4nc5ccc(OCCCN(C)C)cc5n4C)cc3)[nH]c2c1 [Compound 312] |
| > 200 µM | CN(C)CCCOc1ccc2[nH]c(-c3ccc(-c4nc5cc(OCCCN(C)C)ccc5n4C)cc3)nc2c1 [Compound 313] |
| 21.4 µM | CN(C)CCCOc1ccc2nc(-c3cnc(-c4nc5ccc(OCCCN(C)C)cc5[nH]4)nc3)[nH]c2c1 [Compound 317] |
| > 200 µM | CN(C)CCCOc1ccc2nc(-c3ccc(-c4nc5ccc(OCCCC(=O)NCCN(C)C)cc5[nH]4)cc3)[nH]c2c1 [Compound 318] |
| > 200 µM | CN(C)CCNC(=O)c1ccc2nc(-c3ccc(-c4nc5ccc(C(=O)O)cc5[nH]4)cc3)[nH]c2c1 [Compound 319] |
| 22.4 µM | C#CCCNC(=O)CCCOc1ccc2[nH]c(-c3ccc(-c4nc5cc(OCCCN(C)C)ccc5[nH]4)cc3)nc2c1 [Compound 321] |
| 39.8 µM | C#CCCCNC(=O)CCCOc1ccc2[nH]c(-c3ccc(-c4nc5cc(OCCCN(C)C)ccc5[nH]4)cc3)nc2c1 [Compound 322] |
| 20.3 µM | C#CCCCCNC(=O)CCCOc1ccc2[nH]c(-c3ccc(-c4nc5cc(OCCCN(C)C)ccc5[nH]4)cc3)nc2c1 [Compound 323] |
| > 200 µM | COCCn1c(-c2ccc(-c3nc4cc(OCCCN(C)C)ccc4[nH]3)cc2)nc2cc(OCCCN(C)C)ccc21 [Compound 329] |
| 132 µM | COCCn1c(-c2ccc(-c3nc4ccc(OCCCN(C)C)cc4[nH]3)cc2)nc2ccc(OCCCN(C)C)cc21 [Compound 330] |
| 3.11 µM | CN(C)CCCOc1cc2[nH]c(-c3cc(F)c(-c4nc5cc(F)c(OCCCN(C)C)cc5[nH]4)cc3F)nc2cc1F [Compound 331] |
| 27.2 µM | CCCOc1cc(-c2nc3cc(OCCCN(C)C)ccc3[nH]2)c(OCCC)cc1-c1nc2cc(OCCCN(C)C)ccc2[nH]1 [Compound 332] |
| 46.9 µM | CCCCOc1cc(-c2nc3cc(OCCCN(C)C)ccc3[nH]2)c(OCCCC)cc1-c1nc2cc(OCCCN(C)C)ccc2[nH]1 [Compound 333] |
| 22.6 µM | CN1CCC(Oc2ccc(-c3nc4cc(-c5ccc6[nH]c(-c7ccc(OC8CCN(C)CC8)cc7)nc6c5)ccc4[nH]3)cc2)CC1 [Compound 335] |
| 73.2 µM | CN1CCN(CCNC(=O)c2ccc(-c3nc4cc(-c5ccc6[nH]c(-c7ccc(C(=O)O)cc7)nc6c5)ccc4[nH]3)cc2)CC1 [Compound 343] |

| Structure (SMILES) | IC50 |
| --- | --- |
| CN(C)CCCOc1ccc2nc(-c3ccc(-c4nc5ccc(OCCCN(C)C)cc5[nH]4)nn3)[nH]c2c1 [Compound 292] | 14 µM |
| COc1c(-c2nc3ccc(OCCCN(C)C)cc3[nH]2)ccc(-c2nc3ccc(OCCCN(C)C)cc3[nH]2)c1OC [Compound 303, 3,3′-(((2,3-dimethoxy-1,4-phenylene)bis(1H-benzo[d]imidazole-2,6-diyl))bis(oxy))bis(N,N-dimethylpropan-1-amine)] | > 200 µM |
| CN1C2CCC1CC(NC(=O)c1ccc(-c3nc4cc(-c5ccc6[nH]c(-c7ccc(C(=O)NC8CC9CCC(C8)N9C)cc7)nc6c5)ccc4[nH]3)cc1)C2 (centres unmarked) [Compound 341] | 5.32 µM |
| O=C(N[C@H]1CN2CCC1CC2)c1ccc(-c2nc3cc(-c4ccc5[nH]c(-c6ccc(C(=O)N[C@H]7CN8CCC7CC8)cc6)nc5c4)ccc3[nH]2)cc1 [Compound 342] | 4.38 µM |
